Experimental data published in patent publication US20240360091A1, “GLUN2B-SUBUNIT SELECTIVE ANTAGONISTS OF THE N-METHYL-D-ASPARTATE RECEPTORS WITH ENHANCED POTENCY AT ACIDIC PH” (Emory University, priority 2021, published 2024).
Like-named read-outs stand apart in the source and are kept apart here.

What was measured:
GluN2C = GluN2C (Homo sapiens (Human), UniProt Q14957); experiment: Two electrode voltage-clamp recordings, single concentration, GluN2C; type: cell-based; conditions: pH 6.9
CYP3A4 = CYP3A4 (Homo sapiens (Human), UniProt P08684); experiment: Cytochrome P450 inhibition (Vivid CYP blue screening kit), CYP3A4; type: in vitro ADME; conditions: 1 μM
CYP3A4, sequence (P08684 whole entry, canonical isoform): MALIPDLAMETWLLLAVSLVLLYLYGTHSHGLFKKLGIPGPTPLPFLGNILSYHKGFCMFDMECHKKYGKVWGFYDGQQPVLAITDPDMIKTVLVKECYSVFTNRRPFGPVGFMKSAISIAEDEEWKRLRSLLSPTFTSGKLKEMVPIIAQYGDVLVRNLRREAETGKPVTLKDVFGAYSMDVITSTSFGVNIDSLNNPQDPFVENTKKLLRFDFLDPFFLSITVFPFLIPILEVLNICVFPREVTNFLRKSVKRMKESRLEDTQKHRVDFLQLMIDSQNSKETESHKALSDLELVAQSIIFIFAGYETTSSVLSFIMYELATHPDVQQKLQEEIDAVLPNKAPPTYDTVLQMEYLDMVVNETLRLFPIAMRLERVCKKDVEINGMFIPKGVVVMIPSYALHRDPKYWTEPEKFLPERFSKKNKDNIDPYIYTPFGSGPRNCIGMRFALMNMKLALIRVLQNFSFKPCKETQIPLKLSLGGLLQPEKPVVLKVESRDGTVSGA
Description: Inhibition of CYP2D6 and CYP3A4 was accomplished using recombinant human isoforms and a Vivid CYP blue screening kit (Invitrogen, USA) by incubating 2-fold serial dilutions (9 samples) of the test compound with kit reagents and reaction buffer according to the manufacturer's methods in a 96-well plate. The plate was then incubated at room temperature for 30 min before fluorescence was measured with a plate reader. For these studies, reference standards ketoconazole (CYP3A4) and quinidine (CYP2D6) were used as controls.

[1] = Plasma protein binding, rapid equilibrium dialysis, mouse; type: in vitro ADME; conditions: n=2
Description: Plasma protein binding was performed with a rapid equilibrium dialysis (RED) device containing dialysis membrane with a molecular weight cut-off of 8,000 Daltons according to the manufacturer's instructions (ThermoFisher, USA). The plasma samples (pH 7.4) and the test compound solution (1 or 5 μM) or reference standards (Warfarin and Propranolol, 10 μM) were combined (DMSO final conc 0.1%). 300 μL of this spiked plasma sample was added to the sample chamber, and 500 μL of blank PBS buffer (pH 7.4) was added into the buffer chamber. The RED device was sealed with adhesive film and then incubated at 37° C. with shaking at 300 rpm for 4 h. Following incubation, an aliquot (50 μL) was removed from each well (spiked plasma and buffer side) and diluted with equal volume of the corresponding opposite matrix (blank buffer or blank plasma) to nullify the matrix effect, and then extracted for analysis by LC-MS/MS. The amount of free material was determined by:
% Free=(LC-MS/MS peak area of test compound in buffer side/LC-MS/MS peak area of test compound in plasma side)×100%

[2] = SAD study NP10679-101, plasma pharmacokinetics; type: in vivo, human
Description: Each cohort consisted of 8 subjects.
(±10° C.) until shipment.

[3] = human, plasma, Cohort 1, 5 mg single IV
[4] = human, plasma, Cohort 2, 15 mg single IV
[5] = human, plasma, Cohort 3, 50 mg single IV
[6] = human, plasma, Cohort 4, 100 mg single IV
[7] = human, plasma, Cohort 5, 150 mg single IV
[8] = human, plasma, Cohort 6, 200 mg single IV

GluN2C, sequence (Q14957 20-1233, other chains not shown): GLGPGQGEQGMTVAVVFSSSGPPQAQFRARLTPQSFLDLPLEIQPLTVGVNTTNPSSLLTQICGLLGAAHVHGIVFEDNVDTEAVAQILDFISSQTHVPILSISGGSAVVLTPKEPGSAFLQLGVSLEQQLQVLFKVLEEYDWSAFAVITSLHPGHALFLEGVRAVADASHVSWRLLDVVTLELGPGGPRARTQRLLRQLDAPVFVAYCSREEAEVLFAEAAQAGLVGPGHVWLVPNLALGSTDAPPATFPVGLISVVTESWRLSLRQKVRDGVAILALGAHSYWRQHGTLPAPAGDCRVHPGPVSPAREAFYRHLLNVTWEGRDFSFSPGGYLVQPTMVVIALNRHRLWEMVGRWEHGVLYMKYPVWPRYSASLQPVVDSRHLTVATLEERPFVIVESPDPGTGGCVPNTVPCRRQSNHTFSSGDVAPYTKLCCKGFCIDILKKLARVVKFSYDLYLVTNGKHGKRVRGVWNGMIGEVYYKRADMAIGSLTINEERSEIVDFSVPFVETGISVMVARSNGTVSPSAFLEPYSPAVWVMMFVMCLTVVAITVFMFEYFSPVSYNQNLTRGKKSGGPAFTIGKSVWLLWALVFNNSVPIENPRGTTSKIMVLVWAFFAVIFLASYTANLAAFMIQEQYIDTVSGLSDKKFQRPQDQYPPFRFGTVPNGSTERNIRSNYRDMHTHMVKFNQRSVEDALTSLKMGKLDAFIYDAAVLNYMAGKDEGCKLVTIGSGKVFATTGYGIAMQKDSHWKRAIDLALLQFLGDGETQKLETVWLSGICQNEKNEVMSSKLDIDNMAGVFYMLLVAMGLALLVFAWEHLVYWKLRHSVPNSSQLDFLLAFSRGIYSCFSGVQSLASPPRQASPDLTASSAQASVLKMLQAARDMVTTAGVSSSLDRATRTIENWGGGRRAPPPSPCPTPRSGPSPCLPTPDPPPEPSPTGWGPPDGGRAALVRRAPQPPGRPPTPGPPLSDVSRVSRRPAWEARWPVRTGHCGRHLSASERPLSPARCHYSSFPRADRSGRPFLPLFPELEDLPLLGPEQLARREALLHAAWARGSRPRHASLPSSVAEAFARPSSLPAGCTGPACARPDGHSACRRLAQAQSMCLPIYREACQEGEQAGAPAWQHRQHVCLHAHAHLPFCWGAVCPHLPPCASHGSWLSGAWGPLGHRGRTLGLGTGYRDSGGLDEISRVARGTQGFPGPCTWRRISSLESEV

SMILES: O=C1CCc2cc(OC[C@H](O)CN3CCN(c4ccc(C(F)(F)F)cc4)CC3)ccc2N1 [NP10679]
- off-target inhibition against GluN2C (GluN2C; 3 μM): no noticeable off-target inhibition
- GluN2C % residual (GluN2C; % current remaining after 3 μM compound): 100.1 (pH 6.9) %
- inhibition of CYP3A4 (CYP3A4): did not inhibit
- bound to mouse plasma proteins [1]: 98.2%
- AUMC(0-T) (ng*h^2/mL) ([2]; Cohort 1, 5 mg single IV): 5794 ng*h^2/mL
- AUMC(0-inf) (ng*h^2/mL) ([2]; Cohort 1, 5 mg single IV): 35856 ng*h^2/mL
- CL ([2]; Cohort 1, 5 mg single IV): 9.82 L/h
- Cmax ([2]; Cohort 1, 5 mg single IV): 26.96 ng/mL
- T1/2* ([2]; Cohort 1, 5 mg single IV, harmonic mean): 27.6 h
- AUMC(0-T) (ng*h^2/mL) ([2]; Cohort 2, 15 mg single IV): 18219 ng*h^2/mL
- AUMC(0-inf) (ng*h^2/mL) ([2]; Cohort 2, 15 mg single IV): 34553 ng*h^2/mL
- AUMC(0-T) (ng*h^2/mL) ([2]; Cohort 3, 50 mg single IV): 61442 ng*h^2/mL
- AUMC(0-inf) (ng*h^2/mL) ([2]; Cohort 3, 50 mg single IV): 114675 ng*h^2/mL
- AUMC(0-T) (ng*h^2/mL) ([2]; Cohort 4, 100 mg single IV): 201642 ng*h^2/mL
- AUMC(0-inf) (ng*h^2/mL) ([2]; Cohort 4, 100 mg single IV): 253651 ng*h^2/mL
- AUMC(0-T) (ng*h^2/mL) ([2]; Cohort 5, 150 mg single IV): 286984 ng*h^2/mL
- AUMC(0-inf) (ng*h^2/mL) ([2]; Cohort 5, 150 mg single IV): 323299 ng*h^2/mL
- AUMC(0-T) (ng*h^2/mL) ([2]; Cohort 6, 200 mg single IV): 407581 ng*h^2/mL
- AUMC(0-inf) (ng*h^2/mL) ([2]; Cohort 6, 200 mg single IV): 459611 ng*h^2/mL
- CL ([2]; Cohort 6, 200 mg single IV): 10.39 L/h
- T1/2* ([2]; Cohort 6, 200 mg single IV, harmonic mean): 17.4 h
- clearance as percent of the hepatic blood flow ([2]; human hepatic blood flow 87 L/h): less than 12%
- half-life ([2]; human, plasma, intravenous, SAD and MAD studies, read-out: half-life (converted)): ~20 h
- clearance ([2]; human, plasma, iv, 5 mg, Cohort 1, 5 mg single IV): 164 mL/min
- Cmax ([2]; human, plasma, iv, 5 mg, Cohort 1, 5 mg single IV, read-out: Cmax): 30 ± 14.8 ng/mL
- clearance ([2]; human, plasma, iv, 15 mg, Cohort 2, 15 mg single IV): 200 mL/min
- Cmax ([2]; human, plasma, iv, 15 mg, Cohort 2, 15 mg single IV, read-out: Cmax): 99.2 ng/mL
- clearance ([2]; human, plasma, iv, 50 mg, Cohort 3, 50 mg single IV): 183 mL/min
- Cmax ([2]; human, plasma, iv, 50 mg, Cohort 3, 50 mg single IV, read-out: Cmax): 415 ng/mL
- clearance ([2]; human, plasma, iv, 100 mg, Cohort 4, 100 mg single IV): 183 mL/min
- Cmax ([2]; human, plasma, iv, 100 mg, Cohort 4, 100 mg single IV, read-out: Cmax): 746 ng/mL
- clearance ([2]; human, plasma, iv, 150 mg, Cohort 5, 150 mg single IV): 182 mL/min
- Cmax ([2]; human, plasma, iv, 150 mg, Cohort 5, 150 mg single IV, read-out: Cmax): 954 ng/mL
- clearance ([2]; human, plasma, iv, 200 mg, Cohort 6, 200 mg single IV): 173 mL/min
- Cmax ([2]; human, plasma, iv, 200 mg, Cohort 6, 200 mg single IV, read-out: Cmax): 2070 ± 798 ng/mL
- AUC(0-inf) [2, 3]: 533 ng·h/mL
- AUC(0-t) [2, 3]: 335 ng·h/mL
- MRT [2, 3]: 52.9 h
- half-life ([2]; human, plasma, Cohort 1, 5 mg single IV, harmonic mean, read-out: T1/2* (converted)): 27.6 ± 12 h
- Vd ([2]; human, plasma, Cohort 1, 5 mg single IV, read-out: Vss): 435 L
- AUC(0-inf) [2, 4]: 1280 ng·h/mL
- AUC(0-t) [2, 4]: 1140 ng·h/mL
- MRT [2, 4]: 26.1 h
- half-life ([2]; human, plasma, Cohort 2, 15 mg single IV, harmonic mean, read-out: T1/2* (converted)): 20.4 h
- Vd ([2]; human, plasma, Cohort 2, 15 mg single IV, read-out: Vss): 306 L
- AUC(0-inf) [2, 5]: 4680 ng·h/mL
- AUC(0-t) [2, 5]: 3980 ng·h/mL
- MRT [2, 5]: 23.8 h
- half-life ([2]; human, plasma, Cohort 3, 50 mg single IV, harmonic mean, read-out: T1/2* (converted)): 17.8 h
- Vd ([2]; human, plasma, Cohort 3, 50 mg single IV, read-out: Vss): 255 L
- AUC(0-inf) [2, 6]: 9860 ng·h/mL
- AUC(0-t) [2, 6]: 9370 ng·h/mL
- MRT [2, 6]: 24.5 h
- half-life ([2]; human, plasma, Cohort 4, 100 mg single IV, harmonic mean, read-out: T1/2* (converted)): 19.8 h
- Vd ([2]; human, plasma, Cohort 4, 100 mg single IV, read-out: Vss): 259 L
- AUC(0-inf) [2, 7]: 13800 ng·h/mL
- AUC(0-t) [2, 7]: 13600 ng·h/mL
- MRT [2, 7]: 23 h
- half-life ([2]; human, plasma, Cohort 5, 150 mg single IV, harmonic mean, read-out: T1/2* (converted)): 17.9 h
- Vd ([2]; human, plasma, Cohort 5, 150 mg single IV, read-out: Vss): 250 L
- AUC(0-inf) [2, 8]: 20200 ng·h/mL
- AUC(0-t) [2, 8]: 19700 ng·h/mL
- MRT [2, 8]: 21.9 h
- half-life ([2]; human, plasma, Cohort 6, 200 mg single IV, harmonic mean, read-out: T1/2* (converted)): 17.4 ± 2.8 h
- Vd ([2]; human, plasma, Cohort 6, 200 mg single IV, read-out: Vss): 221 L
- Vd ([2]; human, plasma, single IV 5 to 200 mg, read-out: volume of distribution): > 221 L
- volume of distribution as times of the total body water space ([2]; in vivo): 4.5 times
